Like-named read-outs stand apart in the source and are kept apart here. Peptide text beside a SMILES is read from it.
Experiments:
[1] = biological target: T1, α-hemolysin (α-HL) nanopore (Staphylococcus aureus, UniProt P09616)
[2] = biological target: T1, α-hemolysin (α-HL) nanopore; assay: biochemical; assay type: binding; settings: for kon: extrapolated to ΔV→0 by fit kon(ΔV)=kon(0)exp(aΔV)

T1 sequence (P09616 27-319 limits assumed): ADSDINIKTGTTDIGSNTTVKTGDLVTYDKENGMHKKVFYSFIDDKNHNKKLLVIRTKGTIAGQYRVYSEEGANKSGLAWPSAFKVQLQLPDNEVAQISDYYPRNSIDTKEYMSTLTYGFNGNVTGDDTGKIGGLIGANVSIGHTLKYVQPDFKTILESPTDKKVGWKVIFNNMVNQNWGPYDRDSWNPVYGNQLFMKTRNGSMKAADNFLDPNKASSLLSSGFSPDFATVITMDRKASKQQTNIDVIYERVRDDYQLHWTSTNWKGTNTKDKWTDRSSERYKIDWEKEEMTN

Molecule	relative blockade extent ΔIblock,1/Iopen (residual current I1) ([1]; deeper blockade sub-state I1, Fig. 1: 20 µM trans-added, ΔV = +100 mV, 2 M KCl, 10 mM HEPES, pH 7, ~23 °C, kind of spread not stated)	relative blockade extent ΔIblock,2/Iopen (residual current I2) ([1]; shallower blockade sub-state I2, Fig. 1: 20 µM trans-added, ΔV = +100 mV, 2 M KCl, 10 mM HEPES, pH 7, ~23 °C, kind of spread not stated)	dissociation rate, cis vs trans entry with preserved axial orientation, in words ([2]; at +ΔV (Figure 7a,d) and at −ΔV (Figure 7b,c), 30 μM)	dissociation, comparison of polarity in words ([2]; cis-added, +ΔV vs −ΔV (Figure 7c,d), 30 μM)	association rates trans vs cis side, in words ([2]; high voltages (|ΔV| > 100 mV), 30 μM)	association rate kon, ranking by addition side and voltage polarity ([2]; high voltages (|ΔV| > 100 mV), 30 μM peptide, cis or trans addition)	kon ([2]; pH 7, read-out: near equilibrium association rate constant kon(0), cis-added, +ΔV, 30 μM peptide, 2 M KCl, 10 mM HEPES, pH 7, ~23 °C) [M⁻¹ s⁻¹]	kon ([2]; pH 7, read-out: near equilibrium association rate constant kon(0), cis-added, −ΔV, 30 μM peptide, 2 M KCl, 10 mM HEPES, pH 7, ~23 °C) [M⁻¹ s⁻¹]	kon ([2]; pH 7, read-out: near equilibrium association rate constant kon(0), trans-added, +ΔV, 30 μM peptide, 2 M KCl, 10 mM HEPES, pH 7, ~23 °C) [M⁻¹ s⁻¹]	kon ([2]; pH 7, read-out: near equilibrium association rate constant kon(0), trans-added, −ΔV, 30 μM peptide, 2 M KCl, 10 mM HEPES, pH 7, ~23 °C) [M⁻¹ s⁻¹]	dissociation rate constant koff, comparison of polarity in words ([2]; trans-added, +ΔV vs −ΔV (Figure 7a,b), 30 μM)	association rate constant kon, comparison in words ([2]; trans-added, Pe6 vs Pe4, voltage-dependent (Figure 4a,c), 2 M KCl, 10 mM HEPES, pH 7, ~23 °C)	trapping time inside α-HL, comparison in words ([2]; trans-added, as the positive voltage increases (+80, +90, +100 mV), Pe6 vs Pe4, 2 M KCl, pH 7)	association rate, comparison of polarity in words ([2]; trans-added, relatively low transmembrane potential values (Figure 6a,b insets), 30 μM)	near equilibrium kon(0), ranking by addition side and voltage polarity ([2]; ΔV→0, cis or trans addition, 30 μM peptide)	relative blockade extent ΔIblock,1/Iopen, comparison in words [1]	relative blockade extent ΔIblock,1/Iopen (residual current I1) ([1]; pH 7)	relative blockade extent ΔIblock,2/Iopen (residual current I2) ([1]; pH 7)	dissociation rate constant koff, comparison in words ([2]; pH 7)
CC(=O)N[C@@H](CCCNC(=N)N)C(=O)N[C@@H](CCCNC(=N)N)C(=O)N[C@@H](CCCNC(=N)N)C(=O)N[C@@H](CCCNC(=N)N)C(=O)N[C@@H](CCCNC(=N)N)C(=O)N[C@@H](CCCNC(=N)N)C(=O)N[C@@H](CCCNC(=N)N)C(=O)N[C@@H](CCCNC(=N)N)C(=O)N[C@@H](CCCNC(=N)N)C(=O)N[C@@H](CCCNC(=N)N)C(=O)N[C@@H](CCCNC(=N)N)C(=O)N[C@@H](CCCNC(=N)N)C(=O)N[C@@H](CO)C(=O)N[C@@H](CO)C(=O)N[C@@H](CO)C(=O)N[C@@H](CO)C(=O)N[C@@H](CO)C(=O)N[C@@H](CO)C(=O)N[C@@H](CCC(=O)O)C(=O)N[C@@H](CCC(=O)O)C(=O)N[C@@H](CCC(=O)O)C(=O)N[C@@H](CCC(=O)O)C(=O)N[C@@H](CCC(=O)O)C(=O)N[C@@H](CCC(=O)O)C(=O)N[C@@H](CCC(=O)O)C(=O)N[C@@H](CCC(=O)O)C(=O)N[C@@H](CCC(=O)O)C(=O)N[C@@H](CCC(=O)O)C(=O)N[C@@H](CCC(=O)O)C(=O)N[C@@H](CCC(=O)O)C(N)=O [Pe6, Ac–(R)12–(S)6–(E)12–NH2] (Ac-RRRRRRRRRRRRSSSSSSEEEEEEEEEEEE-NH2)	0.91 ± 0.003	0.83 ± 0.002	within the same order of magnitude	dissociates faster at +ΔVs (Figure 7d) than −ΔVs	the association rates from the trans side are, in general, larger than peptide association from the cis side	koncis;−ΔV<koncis;+ΔV<kontrans;+ΔV<kontrans;−ΔV	63 ± 35.1	26.1 ± 8.9	83500	1200	larger at +ΔVs than at −ΔVs	almost one order of magnitude larger than that of the isoleucine-containing peptide (Pe4)	being trapped longer than Pe4 peptide inside the α-HL, as the voltage increases	associate faster to the nanopore at +ΔVs (Figure 6a, inset) than −ΔV s	koncis;−ΔV(0)<koncis;+ΔV(0)<kontrans;−ΔV(0)<kontrans;+ΔV(0)	–	–	–	–
Ac–(R)12–(I)6–(E)12–NH2 [Pe4]	–	–	–	–	–	–	–	–	–	–	–	–	–	–	–	slightly higher extent of relative blockade	0.93 ± 5.1 × 10^−4	0.83 ± 0.004	slightly faster dissociation step

Reference: article PMC6403800 (Polymers, 2018)
